Results as given in the supplement of paper PMC4862054.

test system: CAL-148; experiment: normalised response (% of control), CellTiter-Glo; higher = more viable cells (100 = DMSO, 0 = benzethonium chloride kill control); conditions: incubation time: 72 h
In short: (§1)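 Each entry is the normalised signal at a single concentration within a series. The series comprised 5 concentrations in 10-fold steps over a compound-specific 10,000-fold range, placed in 384-well plates into which breast cancer cell lines were seeded as 20 µl suspension and incubated 72 h. CellTox Green (485/520 nm) fluorescence and then CellTiter-Glo luminescence were read, with signals normalised per plate to 0.1 % DMSO (100) and a positive kill control (0).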

Compared with `N#Cc1ccc(COC[C@H]2O[C@@H](n3c(NCc4ccc(Cl)c(Cl)c4)nc4c(N)ncnc43)[C@H](O)[C@@H]2O)cc1` (1000 nM), `COc1cc2ncnc(Nc3ccc(F)c(Cl)c3)c2cc1OCCCN1CCOCC1` [Gefitinib] (1000 nM) is lower in normalised response: 98.5% for the first, 80% for the second.

First: COc1cc(OC2CCN(C)CC2)ccc1Nc1ncc2c(n1)n(C1CCCC1)c(=O)n2C [AZ 3146] (1000 nM)
Second: CCc1c2c(nc3ccc(OC(=O)N4CCC(N5CCCCC5)CC4)cc13)-c1cc3c(c(=O)n1C2)COC(=O)[C@]3(O)CC [Irinotecan] (1000 nM)
The normalised response of the first is higher: 94.5% for the first, 66.3% for the second.

Compared with `CN(C)c1nc(N(C)C)nc(N(C)C)n1` [Altretamine] (1000 nM), `CN(C)CCOc1ccc(/C(=C(/CCCl)c2ccccc2)c2ccccc2)cc1` [Toremifene] (1000 nM) is higher in normalised response: 95.2% for the first, 99.2% for the second.

Going from `O=C(/C=C/c1cccc(S(=O)(=O)Nc2ccccc2)c1)NO` [Belinostat] (1000 nM) to `Cc1[nH]c2ccccc2c1CCNCc1ccc(/C=C/C(=O)NO)cc1` [Panobinostat] (100 nM), the normalised response falls from 28.5% to 3.76%.

Compared with `O=P1(N(CCCl)CCCl)NCCCO1` (stereo not given) [Cyclophosphamide] (4000 nM), `COCC1(CO)C(=O)C2CCN1CC2` (stereo not given) [Prima-1 Met] (1000 nM) is higher in normalised response: 100% for the first, 101% for the second.

Going from `C=C1C[C@@H]2[C@H](CC[C@]3(C)C(=O)CC[C@@H]23)[C@@]2(C)C=CC(=O)C=C12` [Exemestane] (1000 nM) to `Oc1ccc2c(c1)CC[C@H](c1ccccc1)[C@@H]2c1ccc(OCCN2CCCC2)cc1` [Lasofoxifene] (100 nM), the normalised response rises from 97.7% to 105%.

First: O=C(Nc1ccncc1)C(=O)c1cn(Cc2ccc(Cl)cc2)c2ccccc12 [Indibulin] (1000 nM)
Second: c1ccc2c(CCNc3ccc(Nc4ccncc4)cc3)c[nH]c2c1 [Serdemetan] (1000 nM)
The normalised response of the first is higher: 93.2% for the first, 71.1% for the second.

First: NC(=O)c1ccc(I)c([N+](=O)[O-])c1 [Iniparib] (1000 nM)
Second: O=C(Nc1cccnc1)N1CCC(Cc2cccc(Oc3ccc(C(F)(F)F)cn3)c2)CC1 [PF-3845] (1000 nM)
The normalised response of the first is lower: 83.3% for the first, 99.4% for the second.

Going from `Cc1ccc(NC(=O)c2ccc(CN3CCN(C)CC3)cc2)cc1Nc1nc(-c2cccnc2)cs1` [Masitinib] (1000 nM) to `CNC(=O)c1cc(Oc2ccc(NC(=O)Nc3ccc(Cl)c(C(F)(F)F)c3)c(F)c2)ccn1` [Regorafenib] (1000 nM), the normalised response falls from 103% to 99.1%.

Compared with `CC(C)C[C@@H](C(=O)N[C@H](C(=O)OC1CCCC1)c1ccccc1)[C@H](O)C(=O)NO` [Tosedostat] (1000 nM), `COCC[n+]1c2c(n(Cc3cnccn3)c1C)C(=O)c1ccccc1C2=O` [YM155] (1000 nM) is lower in normalised response: 72.9% for the first, -0.23% for the second.

test system: MDA-MB-453; experiment: as above; conditions: incubation time: 72 h
In short: as §1

Going from `N#Cc1ccc(COC[C@H]2O[C@@H](n3c(NCc4ccc(Cl)c(Cl)c4)nc4c(N)ncnc43)[C@H](O)[C@@H]2O)cc1` (1000 nM) to `COc1cc2ncnc(Nc3ccc(F)c(Cl)c3)c2cc1OCCCN1CCOCC1` [Gefitinib] (1000 nM), the normalised response falls from 98.4% to 95.2%.

Going from `COc1cc(OC2CCN(C)CC2)ccc1Nc1ncc2c(n1)n(C1CCCC1)c(=O)n2C` [AZ 3146] (1000 nM) to `CCc1c2c(nc3ccc(OC(=O)N4CCC(N5CCCCC5)CC4)cc13)-c1cc3c(c(=O)n1C2)COC(=O)[C@]3(O)CC` [Irinotecan] (1000 nM), the normalised response rises from 117% to 152%.

First: CN(C)c1nc(N(C)C)nc(N(C)C)n1 [Altretamine] (1000 nM)
Second: CN(C)CCOc1ccc(/C(=C(/CCCl)c2ccccc2)c2ccccc2)cc1 [Toremifene] (1000 nM)
The normalised response of the first is higher: 115% for the first, 106% for the second.

First: O=C(/C=C/c1cccc(S(=O)(=O)Nc2ccccc2)c1)NO [Belinostat] (1000 nM)
Second: Cc1[nH]c2ccccc2c1CCNCc1ccc(/C=C/C(=O)NO)cc1 [Panobinostat] (100 nM)
The normalised response of the first is higher: 14.4% for the first, 3.15% for the second.

Going from `O=P1(N(CCCl)CCCl)NCCCO1` (stereo not given) [Cyclophosphamide] (4000 nM) to `COCC1(CO)C(=O)C2CCN1CC2` (stereo not given) [Prima-1 Met] (1000 nM), the normalised response falls from 111% to 109%.

Going from `C=C1C[C@@H]2[C@H](CC[C@]3(C)C(=O)CC[C@@H]23)[C@@]2(C)C=CC(=O)C=C12` [Exemestane] (1000 nM) to `Oc1ccc2c(c1)CC[C@H](c1ccccc1)[C@@H]2c1ccc(OCCN2CCCC2)cc1` [Lasofoxifene] (100 nM), the normalised response falls from 105% to 104%.

Compared with `O=C(Nc1ccncc1)C(=O)c1cn(Cc2ccc(Cl)cc2)c2ccccc12` [Indibulin] (1000 nM), `c1ccc2c(CCNc3ccc(Nc4ccncc4)cc3)c[nH]c2c1` [Serdemetan] (1000 nM) is higher in normalised response: 67.8% for the first, 110% for the second.

First: NC(=O)c1ccc(I)c([N+](=O)[O-])c1 [Iniparib] (1000 nM)
Second: O=C(Nc1cccnc1)N1CCC(Cc2cccc(Oc3ccc(C(F)(F)F)cn3)c2)CC1 [PF-3845] (1000 nM)
The normalised response of the first is lower: 89.2% for the first, 100% for the second.

Going from `Cc1ccc(NC(=O)c2ccc(CN3CCN(C)CC3)cc2)cc1Nc1nc(-c2cccnc2)cs1` [Masitinib] (1000 nM) to `CNC(=O)c1cc(Oc2ccc(NC(=O)Nc3ccc(Cl)c(C(F)(F)F)c3)c(F)c2)ccn1` [Regorafenib] (1000 nM), the normalised response rises from 89.7% to 97.2%.

First: CC(C)C[C@@H](C(=O)N[C@H](C(=O)OC1CCCC1)c1ccccc1)[C@H](O)C(=O)NO [Tosedostat] (1000 nM)
Second: COCC[n+]1c2c(n(Cc3cnccn3)c1C)C(=O)c1ccccc1C2=O [YM155] (1000 nM)
The normalised response of the first is higher: 48.7% for the first, 9.91% for the second.

test system: MDA-MB-468; experiment: as above; conditions: incubation time: 72 h
In short: as §1

Compared with `N#Cc1ccc(COC[C@H]2O[C@@H](n3c(NCc4ccc(Cl)c(Cl)c4)nc4c(N)ncnc43)[C@H](O)[C@@H]2O)cc1` (1000 nM), `COc1cc2ncnc(Nc3ccc(F)c(Cl)c3)c2cc1OCCCN1CCOCC1` [Gefitinib] (1000 nM) is lower in normalised response: 93.7% for the first, 75.3% for the second.

First: COc1cc(OC2CCN(C)CC2)ccc1Nc1ncc2c(n1)n(C1CCCC1)c(=O)n2C [AZ 3146] (1000 nM)
Second: CCc1c2c(nc3ccc(OC(=O)N4CCC(N5CCCCC5)CC4)cc13)-c1cc3c(c(=O)n1C2)COC(=O)[C@]3(O)CC [Irinotecan] (1000 nM)
The normalised response of the first is higher: 104% for the first, 82% for the second.

Compared with `CN(C)c1nc(N(C)C)nc(N(C)C)n1` [Altretamine] (1000 nM), `CN(C)CCOc1ccc(/C(=C(/CCCl)c2ccccc2)c2ccccc2)cc1` [Toremifene] (1000 nM) is lower in normalised response: 107% for the first, 97.6% for the second.

Going from `O=C(/C=C/c1cccc(S(=O)(=O)Nc2ccccc2)c1)NO` [Belinostat] (1000 nM) to `Cc1[nH]c2ccccc2c1CCNCc1ccc(/C=C/C(=O)NO)cc1` [Panobinostat] (100 nM), the normalised response falls from 31.8% to 28.2%.

First: O=P1(N(CCCl)CCCl)NCCCO1 (stereo not given) [Cyclophosphamide] (4000 nM)
Second: COCC1(CO)C(=O)C2CCN1CC2 (stereo not given) [Prima-1 Met] (1000 nM)
The normalised response of the first is lower: 92.9% for the first, 105% for the second.

First: C=C1C[C@@H]2[C@H](CC[C@]3(C)C(=O)CC[C@@H]23)[C@@]2(C)C=CC(=O)C=C12 [Exemestane] (1000 nM)
Second: Oc1ccc2c(c1)CC[C@H](c1ccccc1)[C@@H]2c1ccc(OCCN2CCCC2)cc1 [Lasofoxifene] (100 nM)
The normalised response of the first is lower: 101% for the first, 107% for the second.

Going from `O=C(Nc1ccncc1)C(=O)c1cn(Cc2ccc(Cl)cc2)c2ccccc12` [Indibulin] (1000 nM) to `c1ccc2c(CCNc3ccc(Nc4ccncc4)cc3)c[nH]c2c1` [Serdemetan] (1000 nM), the normalised response rises from 37.7% to 77.8%.

Going from `NC(=O)c1ccc(I)c([N+](=O)[O-])c1` [Iniparib] (1000 nM) to `O=C(Nc1cccnc1)N1CCC(Cc2cccc(Oc3ccc(C(F)(F)F)cn3)c2)CC1` [PF-3845] (1000 nM), the normalised response rises from 83.8% to 95.1%.

Compared with `Cc1ccc(NC(=O)c2ccc(CN3CCN(C)CC3)cc2)cc1Nc1nc(-c2cccnc2)cs1` [Masitinib] (1000 nM), `CNC(=O)c1cc(Oc2ccc(NC(=O)Nc3ccc(Cl)c(C(F)(F)F)c3)c(F)c2)ccn1` [Regorafenib] (1000 nM) is higher in normalised response: 89.9% for the first, 105% for the second.

Going from `CC(C)C[C@@H](C(=O)N[C@H](C(=O)OC1CCCC1)c1ccccc1)[C@H](O)C(=O)NO` [Tosedostat] (1000 nM) to `COCC[n+]1c2c(n(Cc3cnccn3)c1C)C(=O)c1ccccc1C2=O` [YM155] (1000 nM), the normalised response falls from 28.7% to -0.57%.

test system: SK-BR-3; experiment: as above; conditions: incubation time: 72 h
In short: as §1

Going from `N#Cc1ccc(COC[C@H]2O[C@@H](n3c(NCc4ccc(Cl)c(Cl)c4)nc4c(N)ncnc43)[C@H](O)[C@@H]2O)cc1` (1000 nM) to `COc1cc2ncnc(Nc3ccc(F)c(Cl)c3)c2cc1OCCCN1CCOCC1` [Gefitinib] (1000 nM), the normalised response falls from 95.3% to 51.9%.

Going from `COc1cc(OC2CCN(C)CC2)ccc1Nc1ncc2c(n1)n(C1CCCC1)c(=O)n2C` [AZ 3146] (1000 nM) to `CCc1c2c(nc3ccc(OC(=O)N4CCC(N5CCCCC5)CC4)cc13)-c1cc3c(c(=O)n1C2)COC(=O)[C@]3(O)CC` [Irinotecan] (1000 nM), the normalised response rises from 74.6% to 78.8%.

First: CN(C)c1nc(N(C)C)nc(N(C)C)n1 [Altretamine] (1000 nM)
Second: C=C1C[C@@H]2[C@H](CC[C@]3(C)C(=O)CC[C@@H]23)[C@@]2(C)C=CC(=O)C=C12 [Exemestane] (1000 nM)
The normalised response of the first is lower: 107% for the first, 108% for the second.

Compared with `O=C(/C=C/c1cccc(S(=O)(=O)Nc2ccccc2)c1)NO` [Belinostat] (1000 nM), `Cc1[nH]c2ccccc2c1CCNCc1ccc(/C=C/C(=O)NO)cc1` [Panobinostat] (100 nM) is lower in normalised response: 15.7% for the first, 1.76% for the second.

Compared with `O=P1(N(CCCl)CCCl)NCCCO1` (stereo not given) [Cyclophosphamide] (4000 nM), `COCC1(CO)C(=O)C2CCN1CC2` (stereo not given) [Prima-1 Met] (1000 nM) is lower in normalised response: 107% for the first, 101% for the second.

First: O=C(Nc1ccncc1)C(=O)c1cn(Cc2ccc(Cl)cc2)c2ccccc12 [Indibulin] (1000 nM)
Second: Cc1ccc(NC(=O)c2ccc(CN3CCN(C)CC3)cc2)cc1Nc1nc(-c2cccnc2)cs1 [Masitinib] (1000 nM)
The normalised response of the first is lower: 33.2% for the first, 105% for the second.

Compared with `NC(=O)c1ccc(I)c([N+](=O)[O-])c1` [Iniparib] (1000 nM), `O=C(Nc1cccnc1)N1CCC(Cc2cccc(Oc3ccc(C(F)(F)F)cn3)c2)CC1` [PF-3845] (1000 nM) is higher in normalised response: 78% for the first, 101% for the second.

`Oc1ccc2c(c1)CC[C@H](c1ccccc1)[C@@H]2c1ccc(OCCN2CCCC2)cc1` [Lasofoxifene] (100 nM) showed a normalised response of 113%.
